# System: Plasmodium berghei
# Test: Luciferase/luciferin-expressing antifolate-resistant parasites were used to infect a culture of HepG2 cells that were pre-incubated with compounds. Infected hepatocytes emit light due to the luciferase reaction. Assay results are presented as the percent inhibition of light emission compared to control. […]
# Type: functional
# Conditions: sporozoite; for IC90: read-out: LUCIFERASE INFECTION ASSAY - IC90
# [1] = read-out: LUCIFERASE INFECTION ASSAY - IC50
SMILES,IC50 [1] [µM],IC90 [µM],also measured
Cc1cc(C)n2nc(SC(C)C(=O)N3CCCc4ccccc43)nc2n1 (stereo unspecified),> 2,> 2,
COc1cc2c(cc1OCC(=O)Nc1ccccc1Cl)C=CC(C)(C)O2,,> 8.83,"IC50 (PBLUC_HILL_SLOPE 1.25, PBLUC_R_SQUARED 0.511, read-out: LUCIFERASE INFECTION ASSAY - IC50): 4.17 µM"
O=C(COC(=O)c1cc2ccccc2cc1O)NC(c1ccccc1)c1ccccc1,,> 10,"IC50 (FFLUC_HILL_SLOPE 2.56, FFLUC_R_SQUARED 0.57, PBLUC_HILL_SLOPE 2.71, PBLUC_R_SQUARED 0.551, read-out: LUCIFERASE INFECTION ASSAY - IC50): 4.79 µM"
COc1ccc(-c2nonc2NC(=O)c2oc3cc(C)ccc3c2C)cc1OC,,3.11,"IC50 (HEPG2TOX_HILL_SLOPE 1.8, HEPG2TOX_R_SQUARED 0.881, PBLUC_HILL_SLOPE 18.6, PBLUC_R_SQUARED 0.206, read-out: LUCIFERASE INFECTION ASSAY - IC50): 2.77 µM"
CC(Nc1ccc(C(N)=O)cc1[N+](=O)[O-])C12CC3CC(CC(C3)C1)C2 (stereo unspecified),5.52,> 10,
c1nc(NCc2ccc(CN3CCOCC3)cc2)c2sccc2n1,,> 10,"IC50 (HEPG2TOX_HILL_SLOPE 1.44, HEPG2TOX_R_SQUARED 0.736, PBLUC_HILL_SLOPE 1.22, PBLUC_R_SQUARED 0.605, read-out: LUCIFERASE INFECTION ASSAY - IC50): 2.88 µM"
Cc1ccccc1OCc1occc1C(=O)Nc1cccc(-n2cnnn2)c1,,6.83,"IC50 (HEPG2TOX_HILL_SLOPE 2.96, HEPG2TOX_R_SQUARED 0.854, PBLUC_HILL_SLOPE 2.81, PBLUC_R_SQUARED 0.577, read-out: LUCIFERASE INFECTION ASSAY - IC50): 3.12 µM"
COc1ccc(-c2ccc3nnc(-c4cscn4)n3c2)c(C)c1,> 10,> 10,
O=C(Sc1ccc(Cl)cc1Cl)c1cccnc1SCCS(=O)(=O)c1ccc(C(F)(F)F)cn1,,> 5.96,"IC50 (FFLUC_HILL_SLOPE 1.65, FFLUC_R_SQUARED 0.565, PBLUC_HILL_SLOPE 0.597, PBLUC_R_SQUARED 0.0951, read-out: LUCIFERASE INFECTION ASSAY - IC50): > 5.96 µM"
COc1ccc(C(C)(C)C)cc1NC(=O)c1sc2nc3n(c(=O)c2c1C)CCC3,> 10,> 10,
COc1cc(/C=N/NC(=S)NC2CC3CC2C2C=CCC32)ccc1O (stereo unspecified),,> 9.23,"IC50 (PBLUC_HILL_SLOPE 5.25, PBLUC_R_SQUARED 0.0239, read-out: LUCIFERASE INFECTION ASSAY - IC50): > 9.23 µM"
CS(=O)(=O)Nc1ccc(-c2csc(Nc3ccccn3)n2)cc1,,9.68,"IC50 (HEPG2TOX_HILL_SLOPE 3.13, HEPG2TOX_R_SQUARED 0.99, PBLUC_HILL_SLOPE 12.3, PBLUC_R_SQUARED 0.0453, read-out: LUCIFERASE INFECTION ASSAY - IC50): 8.1 µM"
Cc1c(N/N=C(/C(=O)Nc2ccccc2)C(=O)c2ccccc2)c(=O)n(-c2ccccc2)n1C,,> 10,"IC50 (PBLUC_HILL_SLOPE 4.97, PBLUC_R_SQUARED 0.638, read-out: LUCIFERASE INFECTION ASSAY - IC50): 8.09 µM"
NC(c1ccccc1)c1csc(Nc2ccc(-c3ccccc3)nn2)n1 (stereo unspecified),,3.73,"IC50 (PBLUC_HILL_SLOPE 11.1, PBLUC_R_SQUARED 0.371, read-out: LUCIFERASE INFECTION ASSAY - IC50): 3.06 µM"
COc1ccc(NC(=O)c2ccc(O)nc2)cc1S(=O)(=O)N1CCOCC1,> 10,> 10,
O=C(Cn1[nH]c(=O)c2ccccc2c1=O)NCc1ccc(CN2CCOCC2)cc1,> 10,> 10,
CC(C)C(=O)NCc1coc(-c2cccs2)n1,> 10,> 10,
COc1ccc(-c2cc3c(cn2)nc(NCCc2cc(OC)ccc2OC)n3C)c(C)c1,,3.63,"IC50 (HEPG2TOX_HILL_SLOPE 1.97, HEPG2TOX_R_SQUARED 0.898, PBLUC_HILL_SLOPE 1.3, PBLUC_R_SQUARED 0.74, read-out: LUCIFERASE INFECTION ASSAY - IC50): 0.669 µM"
CSc1ccc(/C=N/OCC(=O)NCCc2ccc(Cl)cc2Cl)cc1,> 10,> 10,
COc1ccc(-c2cnc3cnc(-c4ccc(O)cc4)cn23)cc1,,> 10.4,"IC50 (HEPG2TOX_HILL_SLOPE 3.68, HEPG2TOX_R_SQUARED 0.904, PBLUC_HILL_SLOPE 3.01, PBLUC_R_SQUARED 0.439, read-out: LUCIFERASE INFECTION ASSAY - IC50): 5.92 µM"
O=C(CSc1nc2sc3c(c2c(=O)n1-c1cccc(C(F)(F)F)c1)CCCC3)NC12CC3CC(CC(C3)C1)C2,,7.89,"IC50 (PBLUC_HILL_SLOPE 5.84, PBLUC_R_SQUARED 0.777, read-out: LUCIFERASE INFECTION ASSAY - IC50): 5.41 µM"
O=C(Cc1ccsc1)Nc1nc(-c2ccccn2)cs1,,8.87,"IC50 (PBLUC_HILL_SLOPE 6.07, PBLUC_R_SQUARED 0.668, read-out: LUCIFERASE INFECTION ASSAY - IC50): 6.18 µM"

SMILES,IC50 [1] [µM],IC90 [µM],also measured
CNc1snc(C)c1C(=O)N(C)Cc1ccc(F)cc1F,,4.37,"IC50 (PBLUC_HILL_SLOPE 10.5, PBLUC_R_SQUARED 0.526, read-out: LUCIFERASE INFECTION ASSAY - IC50): 3.55 µM"
CNc1nc2cnc(Nc3cccc(Cl)c3)cc2n1Cc1ccco1,,> 10,"IC50 (HEPG2TOX_HILL_SLOPE 1.66, HEPG2TOX_R_SQUARED 0.976, PBLUC_HILL_SLOPE 2.05, PBLUC_R_SQUARED 0.683, read-out: LUCIFERASE INFECTION ASSAY - IC50): 3.63 µM"
CCOC(=O)c1c(C)c(C)n(Cc2ccccc2)c1NC(=O)c1ccccc1,,> 8.77,"IC50 (PBLUC_HILL_SLOPE 3.81, PBLUC_R_SQUARED 0.298, read-out: LUCIFERASE INFECTION ASSAY - IC50): 6.38 µM"
CC(NC(=O)COC(=O)c1cc(O)c2ccccc2c1O)C1CC2CCC1C2 (stereo unspecified),> 10,> 10,
COc1ccc(-c2cn3c(-c4cccc(O)c4)cnc3cn2)cn1,> 10.4,> 10.4,
CC(C)Oc1cccc(Nc2nccc3[nH]c(-c4cccc(F)c4)cc23)c1,1.49,> 10,
CC1=CC2(C)C3C(=O)N(c4ccc(OC(F)(F)F)cc4)C(=O)C3C1C1C(=O)N(c3ccc(OC(F)(F)F)cc3)C(=O)C12 (stereo unspecified),,> 5.55,"IC50 (HEPG2TOX_HILL_SLOPE 2.78, HEPG2TOX_R_SQUARED 0.438, PBLUC_HILL_SLOPE 7.06, PBLUC_R_SQUARED 0.285, read-out: LUCIFERASE INFECTION ASSAY - IC50): 5.08 µM"
O=C(COc1ccc2[nH]c3ccccc3c(=O)c2c1)Nc1ccccc1Cc1ccccc1,,0.11,"IC50 (PBLUC_HILL_SLOPE 1.04, PBLUC_R_SQUARED 0.893, read-out: LUCIFERASE INFECTION ASSAY - IC50): 0.0133 µM"
CC(C)C(C)NC(=O)CSc1nnc(CC2CCCC2)[nH]1 (stereo unspecified),> 10,> 10,
CNc1nc(SCCS(=O)(=O)c2ccccc2)nc2ccccc12,,6.83,"IC50 (PBLUC_HILL_SLOPE 1.42, PBLUC_R_SQUARED 0.718, read-out: LUCIFERASE INFECTION ASSAY - IC50): 1.45 µM"
CC(C)Oc1ccc(Nc2cc3c(cn2)cc(-c2cccc(C(F)(F)F)c2)n3C)cc1,,5.18,"IC50 (PBLUC_HILL_SLOPE 8.74, PBLUC_R_SQUARED 0.3, read-out: LUCIFERASE INFECTION ASSAY - IC50): 4.03 µM"
O=C(c1cc2c(=O)n3ccccc3nc2s1)N(c1ccccn1)C1CCCCC1,,> 10,"IC50 (PBLUC_HILL_SLOPE 9.6, PBLUC_R_SQUARED 0.179, read-out: LUCIFERASE INFECTION ASSAY - IC50): 9.45 µM"
O=C(CN1C(=O)c2cccc([N+](=O)[O-])c2C1=O)OCC(=O)N1CCC(Cc2ccccc2)CC1,> 10,> 10,
O=C(Cn1nnc(-c2ccccc2)n1)N/N=C/c1c(O)ccc2ccccc12,,> 10,"IC50 (HEPG2TOX_HILL_SLOPE 16.4, HEPG2TOX_R_SQUARED 0.547, PBLUC_HILL_SLOPE 10.9, PBLUC_R_SQUARED 0.367, read-out: LUCIFERASE INFECTION ASSAY - IC50): 8.32 µM"
COc1cc2c(cc1NC(=O)c1cnn(C(C)(C)C)c1C)oc1ccccc12,,3.66,"IC50 (PBLUC_HILL_SLOPE 16.6, PBLUC_R_SQUARED 0.596, read-out: LUCIFERASE INFECTION ASSAY - IC50): 3.21 µM"
CNS(=O)(=O)c1cc(C(=O)OCc2ccc(-c3ccccc3C#N)cc2)n(C)c1,,> 10,"IC50 (HEPG2TOX_HILL_SLOPE 9.24, HEPG2TOX_R_SQUARED 0.528, PBLUC_HILL_SLOPE 2.62, PBLUC_R_SQUARED 0.748, read-out: LUCIFERASE INFECTION ASSAY - IC50): 5.4 µM"
CCOc1ccc(C(C)=O)cc1COC(=O)c1cc(-c2ccccc2)nc2c1c(C)nn2-c1ccccc1,> 10,> 10,
CCC(=O)NC1=C(Nc2ccc(SC(F)F)cc2)C(=O)c2ccccc2C1=O,,4.5,"IC50 (HEPG2TOX_HILL_SLOPE 7.23, HEPG2TOX_R_SQUARED 0.37, PBLUC_HILL_SLOPE 1.96, PBLUC_R_SQUARED 0.792, read-out: LUCIFERASE INFECTION ASSAY - IC50): 1.47 µM"
CC(C)Cn1c(SCc2cn3cc(Cl)ccc3n2)nc2ccccc2c1=O,,7.86,"IC50 (HEPG2TOX_HILL_SLOPE 1.44, HEPG2TOX_R_SQUARED 0.631, PBLUC_HILL_SLOPE 96, PBLUC_R_SQUARED 0.548, read-out: LUCIFERASE INFECTION ASSAY - IC50): 7.68 µM"
Cc1noc(C)c1CCC(=O)Nc1nc2cc(C(F)(F)F)ccc2n1Cc1ccco1,,3.57,"IC50 (HEPG2TOX_HILL_SLOPE 1.36, HEPG2TOX_R_SQUARED 0.789, PBLUC_HILL_SLOPE 10.4, PBLUC_R_SQUARED 0.861, read-out: LUCIFERASE INFECTION ASSAY - IC50): 2.89 µM"
COc1cccc(NC(=O)c2cccc(C3(CNCc4ccccc4F)CC3)c2)c1,> 10,> 10,

# From ChEMBL document CHEMBL4483862, “Open-source discovery of chemical leads for next-generation chemoprotective antimalarials” (2018)
